From the supplement of paper PMC5908809

Columns and labels:
KAI3 (IL-2 2.5 ng/mL) [1] = assay: percent inhibition of viability; higher = more inhibition; details: 72 h
IMC-1 (IL-2 20 ng/mL) [2] = assay: as above; details: 72 h
NKL (IL-2 2.5 ng/mL) [3] = assay: as above; details: 72 h
DERL-7 (IL-2 2.5 ng/mL) [4] = assay: as above; details: 72 h
[5] = tested on: normal primary NK cells, pool 1 (3 donors), resting (IL-2 0 ng/mL); assay: as above; details: 72 h
NK-92 (IL-2 2.5 ng/mL) [6] = assay: as above; details: 72 h
NK-YS (IL-2 2.5 ng/mL) [7] = assay: as above; details: 72 h
KHYG-1 (IL-2 2.5 ng/mL) [8] = assay: as above; details: 72 h
SNK-6 (IL-2 2.5 ng/mL) [9] = assay: as above; details: 72 h
[10] = tested on: normal primary NK cells, pool 3 (3 donors) (IL-2 2.5 ng/mL); assay: as above; details: 72 h
YT (IL-2 2.5 ng/mL) [11] = assay: as above; details: 72 h
[12] = tested on: normal primary NK cells, pool 2 (3 donors) (IL-2 2.5 ng/mL); assay: as above; details: 72 h
[13] = tested on: normal primary NK cells, pool 1 (3 donors) (IL-2 2.5 ng/mL); assay: as above; details: 72 h
KAI3 (IL-2 2.5 ng/mL) [14] = assay: drug sensitivity score (DSS) (DSS units); higher = more sensitive; extreme values may be limits of the assay; details: 72 h
IMC-1 (IL-2 20 ng/mL) [15] = assay: as above; details: 72 h
NKL (IL-2 2.5 ng/mL) [16] = assay: as above; details: 72 h
DERL-7 (IL-2 2.5 ng/mL) [17] = assay: as above; details: 72 h
[18] = tested on: normal primary NK cells, pool 1 (3 donors), resting (IL-2 0 ng/mL); assay: as above; details: 72 h
NK-92 (IL-2 2.5 ng/mL) [19] = assay: as above; details: 72 h
NK-YS (IL-2 2.5 ng/mL) [20] = assay: as above; details: 72 h
KHYG-1 (IL-2 2.5 ng/mL) [21] = assay: as above; details: 72 h
SNK-6 (IL-2 2.5 ng/mL) [22] = assay: as above; details: 72 h
[23] = tested on: normal primary NK cells, pool 3 (3 donors) (IL-2 2.5 ng/mL); assay: as above; details: 72 h
YT (IL-2 2.5 ng/mL) [24] = assay: as above; details: 72 h
[25] = tested on: normal primary NK cells, pool 2 (3 donors) (IL-2 2.5 ng/mL); assay: as above; details: 72 h
[26] = tested on: normal primary NK cells, pool 1 (3 donors) (IL-2 2.5 ng/mL); assay: as above; details: 72 h
[27] = tested on: normal NK cells expanded with K562-aAPC; assay: percent inhibition of viability; higher = more inhibition; details: 72 h, IL-2 2.5 ng/mL
Method: (§1)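 Drug sensitivity and resistance testing on K562-aAPC-expanded normal NK cells: 5 concentrations (10-fold steps over a 10,000-fold range), 72 h at 37 °C, viability by CellTiter-Glo normalised to DMSO and benzethonium chloride controls; DSS from the fitted curve.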

[28] = tested on: normal NK cells expanded with K562-aAPC; assay: drug sensitivity score (DSS) (DSS units); higher = more sensitive; extreme values may be limits of the assay; details: 72 h; IL-2 2.5 ng/mL
Method: as §1

C/C(=C\c1csc(C)n1)[C@@H]1C[C@@H]2O[C@]2(C)CCC[C@H](C)[C@H](O)[C@@H](C)C(=O)C(C)(C)[C@@H](O)CC(=O)N1 [Ixabepilone] (max concentration tested 1000 nM)
percent inhibition of viability [%]
Details	0.1 nM	1 nM	10 nM	100 nM	1000 nM
DERL-7 (IL-2 2.5 ng/mL) [4]	-1.92	-1.52	3.37	-3.24	99.5
IMC-1 (IL-2 20 ng/mL) [2]	-7.65	-4.14	-5.18	-8.88	99.5
KAI3 (IL-2 2.5 ng/mL) [1]	-14.5	-15	-11.8	-8.42	52.3
KHYG-1 (IL-2 2.5 ng/mL) [8]	-4.44	-6.03	-7.83	2.2	99.9
NK-92 (IL-2 2.5 ng/mL) [6]	-7.7	-17.5	-9.17	-20.4	92
NK-YS (IL-2 2.5 ng/mL) [7]	-10.3	-9.56	-5.83	-4.02	68.7
NKL (IL-2 2.5 ng/mL) [3]	1.14	-23.1	-11	-7.09	87.4
SNK-6 (IL-2 2.5 ng/mL) [9]	6.18	12.8	-13.9	-4.41	75.4
YT (IL-2 2.5 ng/mL) [11]	-0.47	-4.36	-8.15	1.21	92.3
[5]	-34.8	-25.5	-23.3	-10.4	-12
[10]	-11.4	-5.18	-5.26	-11.3	0.09
[12]	-8.83	-5.74	-1.71	-8.89	4.45
[13]	-13	-15.1	-13.4	-8.88	-3.61
[27]	-1.18	-8.46	-3.17	-2.89	56.2

Details	drug sensitivity score
DERL-7 (IL-2 2.5 ng/mL) [17]	5.27
IMC-1 (IL-2 20 ng/mL) [15]	4.92
KAI3 (IL-2 2.5 ng/mL) [14]	2.26
KHYG-1 (IL-2 2.5 ng/mL) [21]	5.84
NK-92 (IL-2 2.5 ng/mL) [19]	4.08
NK-YS (IL-2 2.5 ng/mL) [20]	3.45
NKL (IL-2 2.5 ng/mL) [16]	4.34
SNK-6 (IL-2 2.5 ng/mL) [22]	3.82
YT (IL-2 2.5 ng/mL) [24]	5.3
[18]	0
[23]	0
[25]	0
[26]	0
[28]	2.77

CCCNC(=O)Nc1ccc(Oc2ncnc3cc(OC)c(OC)cc23)cc1Cl [KRN-633] (max concentration tested 2500 nM)
percent inhibition of viability [%]
Details	0.25 nM	2.5 nM	25 nM	250 nM	2500 nM
DERL-7 (IL-2 2.5 ng/mL) [4]	-3.34	5.83	-0.63	-4.25	1.83
IMC-1 (IL-2 20 ng/mL) [2]	-4.82	-0.52	-0.33	-1.22	4.98
KAI3 (IL-2 2.5 ng/mL) [1]	2.52	-4.37	-1.43	15	20.2
KHYG-1 (IL-2 2.5 ng/mL) [8]	-7.51	-5.95	-2.77	2.64	8.1
NK-92 (IL-2 2.5 ng/mL) [6]	-15.5	-4.32	5.74	16.5	24.4
NK-YS (IL-2 2.5 ng/mL) [7]	-5.16	-9.39	-4.94	-0.21	16.8
NKL (IL-2 2.5 ng/mL) [3]	-1.85	1.84	11.4	24.8	35.1
SNK-6 (IL-2 2.5 ng/mL) [9]	0.67	-10.6	-7.54	-16.4	-0.64
YT (IL-2 2.5 ng/mL) [11]	-4.93	-5.67	-0.27	4.17	16.1
[5]	-6.06	5.96	3.62	7.14	-4.86
[10]	-5.17	5.1	-2.11	-6.67	-1.34
[12]	-10.4	4.55	1.17	-2.44	3.9
[13]	0.25	12.5	7.25	8.57	1.55
[27]	-6.27	-2.98	-3.15	2.74	8.42

Details	drug sensitivity score
DERL-7 (IL-2 2.5 ng/mL) [17]	0
IMC-1 (IL-2 20 ng/mL) [15]	0
KAI3 (IL-2 2.5 ng/mL) [14]	2.05
KHYG-1 (IL-2 2.5 ng/mL) [21]	0
NK-92 (IL-2 2.5 ng/mL) [19]	2.65
NK-YS (IL-2 2.5 ng/mL) [20]	0.34
NKL (IL-2 2.5 ng/mL) [16]	5.19
SNK-6 (IL-2 2.5 ng/mL) [22]	0
YT (IL-2 2.5 ng/mL) [24]	0.73
[18]	0
[23]	0
[25]	0
[26]	0
[28]	0
